Assay results: US20150018566A1, “TUBULIN BINDING AGENTS” (priority 2011, published 2015)
Where two headings read alike, the source gives them in different places.

Experiments:
[1] = tested on: HUVECs; assay: Cell cycle analysis, G2/M phase, PI staining and flow cytometry; type: cell-based, human; settings: 24 h treatment
Excerpt: Proliferating cells are constantly dividing to produce daughter cells. The most obvious cellular structure that requires duplication and division is the cell nucleus where DNA, cell's genetic material is present. During a cell cycle there are changes in the DNA content and thus there are different cycle stages including G0, G1, S, G2 and M (mitosis). The G0 stage of the cycle is a subset of G1 where the cells are quiescent and have limited cellular functions. Cells remain in the G1 portion of the cycle when are not in a process of cell division and thus G1 phase is the most predominant phase of the cycle appearing as the largest peak. In addition, during the G1 phase synthesis of many RNA and protein molecules is taking place which are necessary for DNA synthesis. G2 phase is a period for repair of any damaged DNA and for reorganisation of the DNA structure before entering the M phase. Cell cycle abnormalities could be a sign of cell damage, for example DNA damage causes interruption of the cell cycle at certain checkpoints such as the spindle assembly checkpoint (SAC) to prevent carcinogenesis.
The mitotic spindle is composed of microtubules which together with regulatory proteins assist in the activity of properly segregating replicated chromosomes. It is well established that treatment of cells with tubulin polymerization inhibitors causes a G2/M phase arrest of the cell cycle and thus an observable increased DNA content at that stage.
For this reason, cell cycle analysis was carried out using propidium iodide (PI) staining. The first protocol was presented by Krishan in 1975 [6]. The first step involves permeabilisation of the cells' plasma membrane by fixating the cells in ethanol in order for the fluorescent DNA dye to pass through the membrane and into the cells. Ribonuclease A (RNase A) was used to eliminate any RNA present inside the cells in order to avoid creating artefacts that could affect the results. PI was used for the staining of the cells' DNA content; however other fluorescent dyes can be used instead, such as DAPI and Hoechst 33342.
Flow cytometry was used to quantify the DNA contents of the cells. This is a technique which was first introduced by Fulwyler which examines and counts cells or other microscopic particles by suspending them in a stream of fluid and passing them by an electronic detection apparatus. Cells had to pass through the flow cytometer's laser where a fluorescence pulse was generated and it correlated with the amount of DNA dye present inside the cells. […]
Cell cycle arrest at the G2/M phase was examined by PI-staining. […] Cell suspension was kept at 4° C. until ready for analysis. […] Samples were analyzed using a Beckman Coulter (Dako) 2-laser CyAn ADP analyser provided by the Department of Biochemistry, TCD. […]

[2] = target: T1, tubulin (Sus scrofa, UniProt P02550+P02554); assay: Tubulin assembly assay (tubulin binding); type: biochemical, porcine
T1 construct: The procedure used is modified from Shelanski et al; from tissue
Description: The buffer was prepared with deionised water and the pH of the solution was adjusted to 6.6 by the drop-wise addition of 10M aq. NaOH. The buffer was stored at 4° C. prior to use.
Equipment: A Fluostar Optima 96 well plate reader equipped with a thermostat capability.
The tubulin assembly was followed by observing an increase in optical density of a tubulin solution at 350 nm at 37° C. Typically 1 ml of tubulin solution was diluted with EB (5 ml) and GTP solution (25 μl, 5 μl per ml of EB added) to the mixture. The mixture was vortexed for ten seconds in order to ensure the homogeneity of the mixture. 100 μl of the resultant solution was pipetted into a well in the 96 well plate. The increase in optical density of the tubulin solution was measured over a time course of ten minutes at 350 nm and 37° C. […] Accordingly, adjustments were made to the quantity of buffer added in order to obtain a protein concentration within the desired range. […] Tubulin solution (1000 was subsequently pipetted into each of the same three wells. The plate was immediately incubated at 37° C. and was subjected to orbital shaking for five seconds. The UV absorption was measured at 350 nm over a time course of ten minutes. The maximum slope of the resulting curve was measured. The slope of the blank represents the maximum rate of tubulin polymerisation.

[3] = target: T2, APN enzyme present on PC-3 cells (Homo sapiens, UniProt P15144); assay: APN cell-based assay, PC-3 cells
T2 construct: PC-3 cell line was selected due to its high expression of APN; host or cells: PC-3
Description: (§1) To further investigate the APN inhibitory effect of the hybrids the APN cell-based assay was carried out as previously described using both HUVECs and PC-3 cells. In order to exclude any possible cytotoxic effects of the tubulin component of the hybrids that could interfere with the outcome of the results, it was necessary to perform cytotoxicity assays. For this purpose, the MTT assay was used as previously described; however the duration of compounds' incubation was modified to 2 h in order to correlate with the incubation period of APN cell-based assay. The presence of APN-expres sing cells replaced the step of the addition of the actual APN enzyme and the rest of the protocol remained the same. The release of the resulting product p-nitroaniline was measured spectrophotometrically at 405 nm and the level of APN present […] the cells was directly related to the intensity of the colour absorbance.
(§2) HUVECs/PC-3 cells' surface APN activity was estimated spectrophotometrically using L-leucine-p-nitroanilide as an APN substrate. 1×10^6 cells/ml ([…]) were seeded in 96-well plate and incubated overnight at 37° C. The following day cell medium was replaced by various concentrations of compounds diluted in HEPES buffer (100 μl). […] L-leucine-p-nitroanilide (50 μl) was added to each well to give a final concentration of 2 mM. Following 2 h incubation at 37° C., absorbance was measured at 405 nm using a FLUOstar OPTIMA microplate reader (BMG labtech). Each compound concentration was tested in quadruplicate and each experiment was performed at three independent times. The percentage APN inhibition was determined using the formula below and where appropriate, IC50 values were obtained.
(§3) % APN inhibition=100−[(mean Abs of test compound)/(mean Abs of control)]*100

[4] = target: T3, APN enzyme present on HUVECs (Homo sapiens, UniProt P15144); assay: APN cell-based assay, HUVECs
T3 construct: The presence of APN-expres sing cells replaced the step of the addition of the actual APN enzyme; host or cells: HUVECs
Description: as §1, §2, §3

[5] = tested on: HUVECs; assay: MTT cytotoxicity assay, HUVECs; type: cell-based, human
Description: as §1
Cell growth inhibition was assessed using the MTT assay. 5×10^4 cells/ml HUVECs or PC-3 cells (180 μl) were inoculated into each well of a 96-well plate and incubated overnight at 37° C. Compounds or control solutions (20 μl) were added into each well and the plates were incubated for 72 h. CA-4 was used as a positive control. […] The percentage growth inhibition was determined using the formula below and the results were expressed in terms of IC50 values.

[6] = HUVEC, read-out: percentage APN inhibition

T2 sequence (P15144 whole entry): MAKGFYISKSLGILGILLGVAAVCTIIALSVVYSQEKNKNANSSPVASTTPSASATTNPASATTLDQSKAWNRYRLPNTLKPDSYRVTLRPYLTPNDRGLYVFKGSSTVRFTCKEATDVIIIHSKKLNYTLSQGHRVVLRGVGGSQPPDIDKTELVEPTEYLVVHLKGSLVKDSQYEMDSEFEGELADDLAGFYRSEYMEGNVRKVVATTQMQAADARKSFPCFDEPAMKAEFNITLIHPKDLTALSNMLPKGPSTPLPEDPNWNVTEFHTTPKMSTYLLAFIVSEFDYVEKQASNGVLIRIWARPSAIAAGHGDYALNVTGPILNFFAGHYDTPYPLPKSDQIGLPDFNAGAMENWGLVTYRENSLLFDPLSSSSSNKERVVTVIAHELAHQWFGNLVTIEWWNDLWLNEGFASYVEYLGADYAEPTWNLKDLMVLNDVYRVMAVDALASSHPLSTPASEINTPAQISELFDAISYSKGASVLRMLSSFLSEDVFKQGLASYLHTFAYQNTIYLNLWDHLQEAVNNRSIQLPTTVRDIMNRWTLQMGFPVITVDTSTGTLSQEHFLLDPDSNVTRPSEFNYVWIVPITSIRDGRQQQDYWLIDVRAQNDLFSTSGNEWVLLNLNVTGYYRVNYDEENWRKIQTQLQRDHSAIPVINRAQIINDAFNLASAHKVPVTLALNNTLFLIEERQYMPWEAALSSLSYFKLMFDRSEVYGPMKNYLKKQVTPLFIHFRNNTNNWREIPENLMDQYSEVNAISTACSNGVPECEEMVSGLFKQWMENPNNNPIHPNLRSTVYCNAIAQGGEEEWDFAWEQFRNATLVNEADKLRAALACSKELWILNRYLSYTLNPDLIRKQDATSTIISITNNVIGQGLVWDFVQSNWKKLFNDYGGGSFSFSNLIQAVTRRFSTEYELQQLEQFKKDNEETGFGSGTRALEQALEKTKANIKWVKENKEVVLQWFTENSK
T3 sequence (P15144 whole entry): as above
T1 sequence (P02550 whole entry): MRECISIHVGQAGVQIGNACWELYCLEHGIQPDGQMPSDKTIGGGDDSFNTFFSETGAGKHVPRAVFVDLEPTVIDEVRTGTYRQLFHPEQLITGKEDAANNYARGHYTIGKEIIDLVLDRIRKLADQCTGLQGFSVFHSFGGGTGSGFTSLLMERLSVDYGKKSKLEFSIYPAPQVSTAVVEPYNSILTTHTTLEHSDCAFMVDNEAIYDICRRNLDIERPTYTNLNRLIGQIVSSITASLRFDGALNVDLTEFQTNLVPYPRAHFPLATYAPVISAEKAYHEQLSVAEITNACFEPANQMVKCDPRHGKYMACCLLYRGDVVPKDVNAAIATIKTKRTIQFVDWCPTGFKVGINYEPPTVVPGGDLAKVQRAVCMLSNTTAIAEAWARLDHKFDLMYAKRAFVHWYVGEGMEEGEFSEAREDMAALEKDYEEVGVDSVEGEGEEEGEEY
T1 sequence (P02554 whole entry): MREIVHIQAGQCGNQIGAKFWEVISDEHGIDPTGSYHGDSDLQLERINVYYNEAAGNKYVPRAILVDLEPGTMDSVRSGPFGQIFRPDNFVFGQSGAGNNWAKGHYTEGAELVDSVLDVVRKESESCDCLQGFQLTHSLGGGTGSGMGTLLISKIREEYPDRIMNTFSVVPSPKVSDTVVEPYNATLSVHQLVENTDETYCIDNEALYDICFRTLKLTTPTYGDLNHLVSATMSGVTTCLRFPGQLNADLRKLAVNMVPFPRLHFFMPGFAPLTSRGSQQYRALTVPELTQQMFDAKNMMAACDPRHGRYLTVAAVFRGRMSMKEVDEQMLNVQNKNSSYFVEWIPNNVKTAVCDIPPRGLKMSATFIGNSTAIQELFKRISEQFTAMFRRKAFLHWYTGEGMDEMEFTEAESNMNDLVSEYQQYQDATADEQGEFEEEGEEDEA

COc1ccc(C2=CC(=O)CCc3c2cc(OC)c(OC)c3OC)cc1O [Compound 1, (Z)-8,9-dihydro-5-(3-hydroxy-4-methoxyphenyl)-1,2,3-trimethoxybenzo[7]annulen-7-one]
percentage of cells in the G2/M phase ([1]; 0.5 μM): 86.3±2.3%
percentage of cells in the G2/M phase ([1]; 1 μM): 79.35±1.7%
IC50 [2]: 1050 nM

COc1ccc(C2=CC(=O)CCc3c2cc(OC)c(OC)c3OC)cc1N [Compound 28, 2-methoxy-5-(2,3,4-trimethoxy-7-oxo-6,7-dihydro-5H-benzo[7]annulen-9-yl)benzenaminium chloride]
percentage of cells in the G2/M phase ([1]; 0.5 μM): 81.25±0.6%
percentage of cells in the G2/M phase ([1]; 1 μM): 76.07±4.82%

COc1ccc(C2=CC(=O)CCc3c2cc(OC)c(OC)c3OC)cc1OC(=O)C(CC(C)C)NC(=O)C(O)C(N)Cc1ccccc1.Cl (centres unmarked) [Compound 44]
percentage APN inhibition ([3]; 1 μM, PC-3 cells, 2 h incubation): 31.3±8.9%
percentage APN inhibition ([3]; 5 μM, PC-3 cells, 2 h incubation): 51.7±8.5%
percentage APN inhibition ([3]; 10 μM, PC-3 cells, 2 h incubation): 55.7±9.8%
percentage APN inhibition ([3]; 20 μM, PC-3 cells, 2 h incubation): 71.4±7.5%
inhibition at 1 µM ([3]; PC-3, read-out: percentage APN inhibition, 1 μM, PC-3 cells, 2 h incubation): 27.8 ± 2.1%
inhibition at 5 µM ([3]; PC-3, read-out: percentage APN inhibition, 5 μM, PC-3 cells, 2 h incubation): 44.6 ± 7.3%
inhibition at 10 µM ([3]; PC-3, read-out: percentage APN inhibition, 10 μM, PC-3 cells, 2 h incubation): 63.7 ± 7.68%
inhibition at 20 µM ([3]; PC-3, read-out: percentage APN inhibition, 20 μM, PC-3 cells, 2 h incubation): 53.4 ± 16.1%
APN inhibition relative to bestatin ([3]; PC-3 cells): 2 fold
inhibition at 0.1 µM [4, 6]: 31.9 ± 19%
inhibition at 1 µM [4, 6]: 52.6 ± 14.7%
inhibition at 5 µM [4, 6]: 64 ± 16.1%

COc1ccc(C2=CC(=O)COc3c2cc(OC)c(OC)c3OC)cc1OC(=O)C(CC(C)C)NC(=O)C(O)C(N)Cc1ccccc1.Cl (centres unmarked) [Compound 45, 2-methoxy-5-(7,8,9-trimethoxy-3-oxo-2H-1-benzoxepin-5-yl)phenyl 2-(3-amino-2-hydroxy-4-phenylbutanamido)-4-methylpentanoate]
inhibition at 1 µM ([3]; 1 μM, PC-3 cells, 2 h incubation, read-out: percentage APN inhibition): 47.9 ± 1.23%
inhibition at 5 µM ([3]; 5 μM, PC-3 cells, 2 h incubation, read-out: percentage APN inhibition): 51.7 ± 1.38%
inhibition at 10 µM ([3]; 10 μM, PC-3 cells, 2 h incubation, read-out: percentage APN inhibition): 51.9 ± 3.89%
inhibition at 20 µM ([3]; 20 μM, PC-3 cells, 2 h incubation, read-out: percentage APN inhibition): 56.5 ± 3.13%
APN inhibition relative to bestatin ([3]; PC-3 cells): significantly more potent APN inhibitor than bestatin
cytotoxic effect on HUVECs [5]: potent cytotoxic effect
inhibition at 0.1 µM ([4]; HUVEC, 0.1 μM, HUVECs, 2 h incubation, read-out: percentage APN inhibition): 18.1 ± 2.9%
inhibition at 0.5 µM ([4]; HUVEC, 0.5 μM, HUVECs, 2 h incubation, read-out: percentage APN inhibition): 21.6 ± 2.2%
APN inhibition relative to bestatin ([4]; HUVECs): superior activity to that of bestatin
